Consider 1 compound from publication PMC11855866 (International Journal of Molecular Sciences, 2025).

Where two headings read alike, the source gives them in different places.

A word on the IC50: it is the concentration needed to halve the response being measured. For orientation: viability means a per cent measure of how many cells are alive, often set against a control.

One data set deals with HMEC-1 cells. In words: MTT cytotoxicity / synergy assay, 72 h, HMEC-1. The following applies: Homo sapiens, HMEC-1, 72 h, read-out: IC50 Value in Specific Cell Line, HMEC-1.
In data set [1] the test system is MCF-7 cells. In words: MTT cytotoxicity / synergy assay, 72 h, MCF-7. The following applies: 72 h. Format: cell-based, human. The protocol: (§1) Stock solutions of the tested compounds were first prepared in DMSO at 200-fold the intended final concentration. […] The cells were treated for 72 h under the same conditions.
(§2) Following treatment, 25 μL of MTT solution was added to each well, and the plates were incubated for 2 h at 37 °C. […] IC₅₀ values, indicating the concentration required to reduce cell viability by 50% compared to untreated controls (set as 100% viability), were calculated using GraphPad Prism 9 software (GraphPad Software, San Diego, CA, USA). All data from this preliminary cytotoxic assay were analyzed by ANOVA followed by Tukey’s post hoc test for multiple comparisons, with significance set at p < 0.05. A similar statistical approach was used for the rest of the experimental work presented in this study.

Data set [2] is described as follows: MTT cytotoxicity / synergy assay, 72 h, MCF-7. As to conditions: human, MCF-7 cells. The class given is cell-based, human. The method, then:
as §1, §2

The test system of data set [3] is MCF-7 cells. As to conditions: cited from earlier work.
The test system of data set [4] is A549, HepG2, MCF-7, and U-87MG. In words: Doxorubicin accumulation assay, sensitive cell lines. The class given is cell-based, human. The method, then:
Cells were seeded at a density of 2 × 10^4 cells per well in black 96-well plates as described in Section 3.6.

Data set [5] deals with 4T1 breast cancer and B16F10 melanoma xenografts. The following applies: 4T1, B16F10 xenografts, MMTV-PyMT; cited from earlier work.
Another data set relates to A549 cells. In words: MTT cytotoxicity / synergy assay, 72 h, A549. The following applies: Homo sapiens, A549, 72 h, read-out: IC50 Value in Specific Cell Line, A549, MTT, 72 h; n.d. = IC50 not achieved within concentrations tested.
For another data set, the system named is MC38 melanoma model. More on the design: method as in PMID 36033393. As to conditions: GLIM 5 mg/kg every 2 days, i.p.; cited from earlier work.
For a further data set, the system named is MC38 model. More on the design: method as in PMID 36033393. The following applies: GLIM 5 mg/kg every 2 days, i.p.; cited from earlier work.
A further data set has as its system CT26 colon cancer model. Set-up: method as in PMID 36033393. The following applies: GLIM 5 mg/kg every 2 days, i.p.; cited from earlier work.

Procedure for A549 cells: (§3) The synergistic effects of drug combinations were studied in various cancer cell lines, including MCF-7 (human breast cancer), A549 (human lung cancer), U-87 MG (human malignant glioma), HepG2 (human liver cancer), and HUH7 (human liver cancer). HMEC-1, an immortalized human microvascular endothelial cell line, was used as a model for normal cells. All cell lines were purchased from ATCC (Rockville, MD, USA).
(§4) The cancer cell lines were cultured in Dulbecco’s Modified Eagle’s Medium (DMEM; Sigma-Aldrich) supplemented with 10% FBS and 1% penicillin/streptomycin mixture (10,000 U/mL penicillin and 10 mg/mL streptomycin; Sigma-Aldrich) at 37 °C in a humidified atmosphere with 5% CO2.
(§5) For the MTT assay, exponentially growing cells were seeded into 96-well plates at a density of 5 × 10³ cells per well. After 24 h of incubation, the medium was replaced with 100 µL of fresh medium containing the tested compounds. After 72 h of treatment, cell viability was assessed using the MTT assay as described earlier. […] IC50 values were calculated using GraphPad Prism 9 software (GraphPad Software).
Procedure for HMEC-1 cells: as §3, §4, §5

In the case of `CCC1=C(C)CN(C(=O)NCCc2ccc(S(=O)(=O)NC(=O)N[C@H]3CC[C@H](C)CC3)cc2)C1=O` [GLIM, Glimepiride], in the data set on HMEC-1 cells, the CC50 turned out to be 136 ± 5.1 µM. Besides, the “decrease in cell viability caused by 0.05% Tween-80” value in the data set with MCF-7 cells [1] (with vs. without 0.05% Tween-80) is 24.6%. The IC50 in the data set on MCF-7 cells [1] (Homo sapiens, MCF7, 72 h, MTT, n.d. = IC50 not achieved within concentrations tested, read-out: IC50 Value in Specific Cell Line, MCF-7) was 175 µM; in the data set on MCF-7 cells [3] (calculated by the authors from the results of Faridi et al., read-out: IC50 value, MCF-7) it was 79.8 µM; with MCF-7 cells [3] (read-out: IC50, MCF-7) it was 50 µM; with A549 cells, 353 µM. Also, the viability at 72 h in data set [2] (0.05% Tween-80, read-out: MCF-7 viability with 0.05% Tween-80) is 71.2%; in data set [2] (before addition of 0.05% Tween-80, read-out: MCF-7 viability without Tween-80) it was 95.9%. Also, in data set [4], the “increase of DOXO levels” value is given as “up to 2.3 times”. The “effect on tumor growth and metastasis” value in data set [5] is “no effect”. Besides, the “reduction of tumor mass” value with MC38 melanoma model is 57%; with CT26 colon cancer model, 45%. Moreover, the “increase in CD8+ T cell numbers” value in the data set with MC38 model was under 10%. Besides, the “increase in CD8+ T cell infiltration” value in the data set with CT26 colon cancer model was “about 100%”.
